In ChEMBL document CHEMBL1148698, “Chemotherapy of leishmaniasis. Part VII: synthesis and bioevaluation of substituted terpenyl pyrimidines” (2007):
Activity calls are given as the source filed them. No cut-off for these calls is given here.

System: Leishmania donovani
Experiment: Antileishmanial activity against Leishmania donovani HOM/IN/80DD8 in hamster at 50 mg/kg, ip after 7 days
Conditions: not given

Structure (SMILES) | Activity
CC1=C(/C=C/c2cc(NC3CCCCC3)nc(N)n2)C(C)(C)CCC1 | inactive
CC1=C(/C=C/c2cc(Nc3ccc(Cl)cc3)nc(N)n2)C(C)(C)CCC1 | inactive
CC1=C(/C=C/c2cc(N3CCOCC3)nc(N)n2)C(C)(C)CCC1 | inactive
CC1=C(/C=C/c2cc(NN)nc(N)n2)C(C)(C)CCC1 | inactive
CC1=C(/C=C/c2cc(N3CCN(c4ccccc4)CC3)nc(N)n2)C(C)(C)CCC1 | inactive
CC1=C(/C=C/c2cc(N3CCNCC3)nc(N)n2)C(C)(C)CCC1 | inactive
COc1ccc(Nc2cc(/C=C/C3=C(C)CCCC3(C)C)nc(N)n2)cc1 | inactive
CC1=C(/C=C/c2cc(NCc3ccccc3)nc(N)n2)C(C)(C)CCC1 | inactive
CC1=C(/C=C/c2cc(Nc3ccc(F)cc3)nc(N)n2)C(C)(C)CCC1 | inactive
CC1=C(/C=C/c2cc(N3CCCCC3)nc(N)n2)C(C)(C)CCC1 | inactive
CC1=C(/C=C/c2cc(Nc3cccc(F)c3)nc(N)n2)C(C)(C)CCC1 | inactive

Same assay, conditions: HOM/IN/80DD8, ip, 168 h

Structure (SMILES) | inhibition in vivo at 50 mg/kg [%]
CSc1cc(/C=C/C2=C(C)CCCC2(C)C)nc(N)n1 | 66
CCN(c1ccccc1)c1cc(/C=C/C2=C(C)CCCC2(C)C)nc(N)n1 | 40
CC1=C(/C=C/c2cc(Nc3ccccc3)nc(N)n2)C(C)(C)CCC1 | 31
